# Read-outs that look alike come from different tables or passages of the source.
# Key:
# [1] = tested on: human erythroleukaemia K562; assay: In vitro cytotoxic activity, Calcein AM assay, K-562; assay type: cell-based; settings: read-out: IC 50 K-562
# Source text: (§1) One of the parameters used, as the basis for cytotoxicity assays, is the metabolic activity of viable cells. For example, a microtiter assay, which uses the Calcein AM, is now widely used to quantitate cell proliferation and cytotoxicity. For instance, this assay is used in drug screening programs and in chemosensitivity testing. Because only metabolically active cells cleave Calcein AM, these assays detect viable cells exclusively. The quantity of reduced Calcein AM corresponds to the number of vital cells in the culture.
# (§2) Human T-lymphoblastic leukemia cell line CEM; promyelocytic HL-60 and monocytic U937 leukemias; breast carcinoma cell lines MCF-7; cervical carcinoma cells HELA; mouse fibroblasts NIH3T3; human erythroleukaemia K562 and human malignant melanoma cells G361 were used for routine screening of compounds. The cells were maintained in Nunc/Corning 80 cm^2 plastic tissue culture flasks and cultured in cell culture medium (DMEM with 5 g/l glucose, 2 mM glutamine, 100 U/ml penicillin, 100 μg/ml streptomycin, 10% fetal calf serum and sodium bicarbonate).
# (§3) The cell suspensions that were prepared and diluted according to the particular cell type and the expected target cell density (10^4 cells per well based on cell growth characteristics) were added by pipette (80 μl) into 96/well microtiter plates. Inoculates were allowed a pre-incubation period of 24 hours at 37° C. and 5% CO2 for stabilisation. Four-fold dilutions of the intended test concentration were added at time zero in 20 μl aliquots to the microtiter plate wells. Usually, test compound was evaluated at six 4-fold dilutions. In routine testing, the highest well concentration was 166.7 μM, but it can be the matter of change dependent on the agent. All drug concentrations were examined in duplicates. Incubations of cells with the test compounds lasted for 72 hours at 37° C., in 5% CO2 atmosphere and 100% humidity. At the end of incubation period, the cells were assayed by using the Calcein AM. Ten microliters of the stock solution were pipetted into each well and incubated further for 1 hours. Fluorescence (FD) was measured with the Labsystem FIA Reader Fluoroscan Ascent (UK). The tumour cell survival (GI50) was calculated using the following equitation: GI50=(FDdrug exposed well/mean FDcontrol wells)×100%. The GI50 value, the drug concentration lethal to 50% of the tumour cells, was calculated from the obtained dose response curves (FIG. 3).
# [2] = tested on: Human T-lymphoblastic leukemia cell line CEM; assay: In vitro cytotoxic activity, Calcein AM assay, CEM; assay type: cell-based; settings: 72 hours
# Source text: as §1, §2, §3
# [3] = tested on: human malignant melanoma cells G361; assay: In vitro cytotoxic activity, Calcein AM assay, G-361; assay type: cell-based; settings: read-out: IC 50 G-361
# Source text: as §1, §2, §3
# promyelocytic HL-60 = assay: In vitro cytotoxic activity, Calcein AM assay, HL60; assay type: cell-based, human; settings: read-out: IC 50 HL60
# Source text: as §1, §2, §3
# mouse fibroblasts NIH3T3 = assay: In vitro cytotoxic activity, Calcein AM assay, NIH-3T3; assay type: cell-based; settings: read-out: IC 50 NIH-3T3
# Source text: as §1, §2, §3
# [4] = tested on: breast carcinoma cell lines MCF-7; assay: In vitro cytotoxic activity, Calcein AM assay, MCF7; assay type: cell-based, human; settings: read-out: IC 50 MCF7
# Source text: as §1, §2, §3
# HOS = assay: In vitro cytotoxic activity, Calcein AM assay, HOS; assay type: cell-based; settings: 72 hours
# [5] = tested on: tobacco callus Nicotiana tabacum L. cv. Wisconsin 38; assay: Growth of cytokinin-dependent tobacco callus; assay type: cell-based; settings: for Activity (%) [10^−5 mol · l^−1 BAP = 100%]: callus growth, at concentration with highest activity; for Concentration with highest activity: fresh callus weight after four weeks
# Experimental: Cytokinin-dependent tobacco callus Nicotiana tabacum L. cv. Wisconsin 38 was maintained at 25° C. in darkness on modified Murashige-Skoog medium, containing per 1 liter: 4 μmol nicotinic acid, 2.4 μmol pyridoxine hydrochloride, 1.2 μmol thiamine, 26.6 μmol glycine, 1.37 μmol glutamine, 1.8 μmol myo-inositol, 30 g of sucrose, 8 g of agar, 5.37 μmol α-naphtylacetic acid (NAA) and 0.5 μmol benzylaminopurine (BAP). Subcultivation was carried out every three weeks. Fourteen days before the bioassay, the callus tissue was transferred to the media without 6-benzylaminopurine (BAP). Biological activity was determined from the increase in fresh callus weight after four weeks of cultivation. Five replicates were prepared for each cytokinin concentration and the entire test was repeated twice. From the obtained data, the concentration with highest activity was selected for each compound tested. Relative activity of the compound at this concentration was calculated (Tab. 6). […] The cytokinins to be tested were dissolved in dimethylsulfoxide (DMSO) and the solution brought up to 10^−3M with distilled water. This stock was further diluted in the respective media used for the biotest to concentrations ranging from 10^−8M to 10^−4M.
# [6] = tested on: Amaranthus caudatus cotyledon/hypocotyl explants; assay: Amaranthus bioassay (betacyanin content); assay type: in vivo; settings: for Concentration with highest activity: 48 h dark; for Activity (%) [10^−5 mol · l^−1 BAP = 100%]: at concentration with highest activity
# Experimental: Standard Amaranthus bioassay was performed with several modifications. The seeds of Amaranthus caudatus var. atropurpurea were surface-sterilised in 10% N-chlorobenzenesulfonamide (w/v) for 10 min and washed 5 times in deionized water. They were placed in 15 cm Petri dishes containing paper tissues saturated with deionized water. After 72 h of cultivation at 25° C. in darkness, the roots of the seedlings were cut off. The explants, consisting of two cotyledons and hypocotyls, were placed in 5 cm Petri dishes on two layers of filter paper soaked in 1 ml of incubation medium containing 10 μmol NA2HPO4-KH2PO4, pH 6.8, 5 μmol tyrosine and the cytokinin to be tested. There were 20 explants per dish. The procedure was carried out under a green safe light in a darkroom. After a 48 h of incubation at 25° C. in darkness, betacyanin was extracted by freezing the explants in 4 ml […] acetic acid. The concentration of betacyanin was determined by comparing the absorbance at 537 nm and 620 nm as follows: ΔA=[…]-[…]. From the obtained data, the concentration with highest activity was selected for each compound tested. Relative activity of the compound at this concentration was calculated (Tab. 12). […] The values shown in table 8 are means of five replicates and the entire test was repeated twice. The cytokinins to be tested were dissolved in dimethylsulfoxide (DMSO) and the solution brought up to 10^-3M with distilled water. This stock was further diluted in the respective media used for the biotest to concentrations ranging from 10^-8M to 10^-4M. […] From the data obtained (FIG. 14) the maximum effective concentration of the tested compound was calculated as well as its relative effectiveness at this concentration (Table 12). […]
# [7] = tested on: Triticum aestivum cv. Hereward; assay: Senescence inhibition on winter wheat leaf segments (chlorophyll retention); assay type: in vivo; settings: for Concentration with highest activity: chlorophyll retention in excised wheat leaf tips, 96 h dark; for Activity (%) [10^−4 mol · l^−1 BAP = 100%]: chlorophyll retention, at concentration with highest activity
# Experimental: Seeds of winter wheat, Triticum aestivum cv. Hereward, were washed under running water for 24 hours and then sown on vermiculite soaked with Knop's solution. They were placed in the grown chamber at 15° C. with a 16/8 h light period at 50 μmol·m^−2·s^−1. After 7 days, the first leaf was fully developed and the second leaf had started to grow. A tip section of the first leaf, approximately 35 mm long, was removed from 5 seedlings and trimmed slightly to a combined weight of 100 mg. The basal ends of the five leaf tips were placed in the wells of a microtiter polystyrene plate containing 150 μl of a cytokinin solution each. The entire plate was inserted into a plastic box lined with paper tissues soaked in distilled water to prevent leaf sections from drying out. After a 96 h incubation in the dark at 25° C., the leaves were removed and chlorophyll extracted by heating at 80° C. for 10 min in 5 ml of 80% ethanol (v/v). The sample volume was then restored to 5 ml by the addition of 80% ethanol (v/v). The absorbency of the extract was recorded at 665 nm. In addition, chlorophyll extracts from fresh leaves and leaf tips incubated in deionised water were measured. From the obtained data, the concentration with highest activity was selected for each compound tested. Relative activity of the compound at this concentration was calculated (Tab. 10). The activity obtained for 10^−4 M 6-benzylaminopurine (BAP) was postulated as 100%. The values shown are means of five replicates and the whole experiment was repeated twice. The cytokinins to be tested were dissolved in dimethylsulfoxide (DMSO) and the solution brought up to 10^−3M with distilled water. This stock was further diluted in distilled water to concentrations ranging from 10^−8M to 10^−4M.
Structure (SMILES),"IC50 ([1]; Homo sapiens, K562, 72 hours)",IC50 ([2]; Homo sapiens),"IC50 ([3]; Homo sapiens, G-361, 72 hours)","IC50 (promyelocytic HL-60; Homo sapiens, HL-60, 72 hours)","IC50 (mouse fibroblasts NIH3T3; Mus musculus, NIH3T3, 72 hours)","IC50 ([4]; Homo sapiens, MCF7, 72 hours)","IC50 (HOS; Homo sapiens, HOS)",IC50 ([1]; 72 hours),IC50 [2],IC50 ([3]; 72 hours),IC50 (promyelocytic HL-60; 72 hours),IC50 (mouse fibroblasts NIH3T3; 72 hours),IC50 ([4]; 72 hours),IC50 (HOS),Activity (%) [10^−5 mol · l^−1 BAP = 100%] [5],Concentration with highest activity [5],Concentration with highest activity [6],Activity (%) [10^−5 mol · l^−1 BAP = 100%] [6],Concentration with highest activity [7],Activity (%) [10^−4 mol · l^−1 BAP = 100%] [7]
Nc1ncnc2c1ncn2[C@@H]1O[C@H](CO)[C@@H](O)[C@H]1O [adenosine],> 167 µM,> 167 µM,> 167 µM,> 167 µM,> 167 µM,> 167 µM,> 167 µM,,,,,,,,,,,,,
"COc1cccc(CNc2nc(Cl)nc3c2ncn3[C@@H]2O[C@H](CO)[C@@H](O)[C@H]2O)c1O [R2 = Cl, 2-hydroxy-3-methoxybenzylamino]",,,,,,,,17 µM,0.2 µM,140 µM,0.1 µM,> 167 µM,23 µM,> 167 µM,,,,,,
"COc1ccc(O)c(CNc2ncnc3c2ncn3[C@@H]2O[C@H](CO)[C@@H](O)[C@H]2O)c1 [2-hydroxy-5-methoxybenzylamino, 6-(2-hydroxy-5-methoxybenzylamino)purine riboside]",,,,,,,,15.4 µM,0.2 µM,102 µM,0.1 µM,> 167 µM,21 µM,> 167 µM,,,,,,
"COc1ccccc1CNc1nc(N)nc2c1ncn2[C@@H]1O[C@H](CO)[C@@H](O)[C@H]1O [R2 = NH2,2-methoxyxybenzylamino, 2-amino-6-(2-methoxybenzylamino)purine riboside]",,,,,,,,34.9 µM,12.8 µM,> 167 µM,7.8 µM,> 167 µM,> 167 µM,27.8 µM,,,,,,
"C/C(=C\CNc1ncnc2c1ncn2[C@@H]1O[C@H](CO)[C@@H](O)[C@H]1O)CO [zeatin riboside, reference compound]",,,,,,,,> 167 µM,> 167 µM,> 167 µM,> 167 µM,> 167 µM,> 167 µM,> 167 µM,,,,,,
"COc1cccc(CNc2nc(N)nc3c2ncn3[C@@H]2O[C@H](CO)[C@@H](O)[C@H]2O)c1 [R2 = NH2,3-methoxyxybenzylamino]",,,,,,,,> 167 µM,13.8 µM,> 167 µM,8.9 µM,> 167 µM,> 167 µM,> 167 µM,,,,,,
"COc1cccc(CNc2nc(Cl)nc3c2ncn3[C@@H]2O[C@H](CO)[C@@H](O)[C@H]2O)c1 [R2 = Cl, 3-methoxyxybenzylamino, 2-chloro-6-(3-methoxybenzylamino)purine riboside]",,,,,,,,> 167 µM,6.5 µM,> 167 µM,4.1 µM,> 167 µM,> 167 µM,> 167 µM,,,,,,
"COc1ccccc1CNc1nc(SC)nc2c1ncn2[C@@H]1O[C@H](CO)[C@@H](O)[C@H]1O [R2 = SCH3,2-methoxyxybenzylamino]",,,,,,,,34.8 µM,11.5 µM,> 167 µM,10.2 µM,> 167 µM,> 167 µM,34.3 µM,,,,,,
"OC[C@H]1O[C@@H](n2cnc3c(NCc4ccccc4Br)ncnc32)[C@H](O)[C@@H]1O [2-bromobenzylamino, 6-(2-bromobenzylamino)purine riboside]",,,,,,,,10 µM,12.3 µM,,6.6 µM,> 167 µM,> 167 µM,> 167 µM,100 ± 4%,10^−5 mol · l^−1,10^−4 mol · l^−1,147 ± 7%,10^−5 mol · l^−1,86 ± 19%
"Cc1ccc(CNc2ncnc3c2ncn3[C@@H]2O[C@H](CO)[C@@H](O)[C@H]2O)cc1 [4-methylbenzylamino, 6-(4-methylbenzylamino)purine riboside]",,,,,,,,> 167 µM,> 167 µM,,> 167 µM,> 167 µM,> 167 µM,> 167 µM,95 ± 6%,10^−6 mol · l^−1,10^−5 mol · l^−1,32 ± 7%,10^−4 mol · l^−1,55 ± 5%
"OC[C@H]1O[C@@H](n2cnc3c(NCc4cc(F)cc(F)c4)ncnc32)[C@H](O)[C@@H]1O [3,5-difluorobenzylamino, 6-(3,5-difluorobenzylamino)purine riboside]",,,,,,,,> 167 µM,24.5 µM,,9.1 µM,> 167 µM,> 167 µM,> 167 µM,95 ± 3%,10^−6 mol · l^−1,10^−4 mol · l^−1,88 ± 1%,10^−4 mol · l^−1,195 ± 14%

# Source: patent publication US8119614B2, “Substitution derivatives of N6-benzyladenosine, methods of their preparation, their use for preparation of drugs, cosmetic preparations and growth regulators, pharmaceutical preparations, cosmetic preparations and growth regulators containing these compounds” (Ustav Experimentalni Botaniky Akademie Ved Ceske Republiky, priority 2002, dated 2012)
